According to patent US8231888B2, “Isoxazolines for controlling invertebrate pests” (priority 2005, dated 2012):

Tests used:
Type in all cases: in vivo
[1] = test system: diamondback moth (Plutella xylostella); assay: Test A: control of diamondback moth on radish plant, foliar spray; conditions: sprayed at 250 and/or 50 ppm, 6 days, 25° C.; no asterisk (not limited to 250 ppm)
From the text: For evaluating control of diamondback moth (Plutella xylostella) the test unit consisted of a small open container with a 12-14-day-old radish plant inside. This was pre-infested with about 50 neonate larvae that were dispensed into the test unit via corn cob grits using a bazooka inoculator. The larvae moved onto the test plant after being dispensed into the test unit.
(§1) Test compounds were formulated using a solution containing 10% acetone, 90% water and 300 ppm X-77™ Spreader Lo-Foam Formula non-ionic surfactant containing alkylarylpolyoxyethylene, free fatty acids, glycols and isopropanol (Loveland Industries, Inc. Greeley, Colo., USA). The formulated compounds were applied in 1 mL of liquid through a SUJ2 atomizer nozzle with 1/8 JJ custom body (Spraying Systems Co. Wheaton, Ill., USA) positioned 1.27 cm (0.5 inches) above the top of each test unit. All experimental compounds in these tests were sprayed at 250 and/or 50 ppm, and the test was replicated three times. After spraying of the formulated test compound, each test unit was allowed to dry for 1 h and then a black, screened cap was placed on top. The test units were held for 6 days in a growth chamber at 25° C. and 70% relative humidity. Plant feeding damage was then visually assessed based on foliage consumed and a pest mortality rating was also counted and calculated for each test unit.

[2] = test system: fall armyworm (Spodoptera frugiperda); assay: Test B: control of fall armyworm on corn (maize) plant, foliar spray; conditions: sprayed at 250 and/or 50 ppm; no asterisk (not limited to 250 ppm)
Procedure: as §1
For evaluating control of fall armyworm (Spodoptera frugiperda) the test unit consisted of a small open container with a 4-5-day-old corn (maize) plant inside. This was pre-infested (using a core sampler) with 10-15 1-day-old larvae on a piece of insect diet. Test compounds were formulated and sprayed at 250 and/or 50 ppm as described for Test A and replicated three times. After spraying, the test units were maintained in a growth chamber and then the control efficacy was rated for each test unit as described for Test A.

[3] = test system: western flower thrips (Frankliniella occidentalis); assay: Test D: control of western flower thrips on Soleil bean plant, contact and/or systemic; conditions: 6 days, 25° C.
Procedure: as §1
For evaluating control of the western flower thrips (Frankliniella occidentalis) through contact and/or systemic means, the test unit consisted of a small open container with a 5-7 day old Soleil Bean plant inside. Test compounds were formulated and sprayed at 250 and/or 50 ppm, and the test was replicated three times as described for Test A. After spraying, the test units were allowed to dry for 1 hour and then 22-27 adult thrips were added to each unit and then a black, screened cap was placed on top. The test units were held for 6 days at 25° C. and 45-55% relative humidity. A mortality rating was assessed along with a plant damage rating for each test unit.

[4] = asterisk: observed only at 250 ppm
[5] = sprayed at 250 and/or 50 ppm, no asterisk (not limited to 250 ppm)

| SMILES | control efficacy (20% or less feeding damage or 80% or more mortality) [1] | control efficacy (20% or less feeding damage or 80% or more mortality) [2] | control efficacy (20% or less feeding damage or 80% or more mortality) [3, 4] | control efficacy (20% or less feeding damage or 80% or more mortality) [3, 5] |
| --- | --- | --- | --- | --- |
| CC(NC(=O)c1ccc(C2=NOC(c3cc(Cl)cc(Cl)c3)(C(F)(F)F)C2)c2ccccc12)C(C)(C)C (stereo not drawn) [Compound 34] | very good to excellent levels of control efficacy | very good to excellent levels of control efficacy | very good to excellent levels of control efficacy | – |
| CCC(C)NC(=O)c1ccc(C2=NOC(c3cc(Cl)cc(Cl)c3)(C(F)(F)F)C2)c2ccccc12 (mixture of isomers) [Compound 32] | very good to excellent levels of control efficacy | very good to excellent levels of control efficacy | – | very good to excellent levels of control efficacy |
| COC(=O)N(Cc1ccccn1)C(=O)c1ccc(C2=NOC(c3cc(Cl)cc(Cl)c3)(C(F)(F)F)C2)c2ccccc12 (stereo not drawn) [Compound 11] | very good to excellent levels of control efficacy | very good to excellent levels of control efficacy | – | very good to excellent levels of control efficacy |
| C=CCNC(=O)c1ccc(C2=NOC(c3cc(Cl)cc(Cl)c3)(C(F)(F)F)C2)c2ccccc12 (stereo not drawn) [Compound 18] | very good to excellent levels of control efficacy | very good to excellent levels of control efficacy | – | very good to excellent levels of control efficacy |
| CC(NC(=O)c1ccc(C2=NOC(c3cc(Cl)cc(Cl)c3)(C(F)(F)F)C2)c2ccccc12)c1ccccn1 (stereo not drawn) [Compound 21] | very good to excellent levels of control efficacy | very good to excellent levels of control efficacy | – | very good to excellent levels of control efficacy |
| CC(NC(=O)c1ccc(C2=NOC(c3cc(Cl)cc(Cl)c3)(C(F)(F)F)C2)c2ccccc12)c1ccccc1 (mixture of isomers) [Compound 15] | very good to excellent levels of control efficacy | very good to excellent levels of control efficacy | very good to excellent levels of control efficacy | – |
| O=C(NCCO)c1ccc(C2=NOC(c3cc(Cl)cc(Cl)c3)(C(F)(F)F)C2)c2ccccc12 (stereo not drawn) [Compound 35] | very good to excellent levels of control efficacy | very good to excellent levels of control efficacy | – | very good to excellent levels of control efficacy |
| O=C(NCC1CC1)c1ccc(C2=NOC(c3cc(Cl)cc(Cl)c3)(C(F)(F)F)C2)c2ccccc12 (stereo not drawn) [Compound 20] | very good to excellent levels of control efficacy | very good to excellent levels of control efficacy | very good to excellent levels of control efficacy | – |
| CN(C)CCNC(=O)c1ccc(C2=NOC(c3cc(Cl)cc(Cl)c3)(C(F)(F)F)C2)c2ccccc12 (stereo not drawn) [Compound 13] | very good to excellent levels of control efficacy | very good to excellent levels of control efficacy | very good to excellent levels of control efficacy | – |
| CC(C)NC(=O)c1ccc(C2=NOC(c3cc(Cl)cc(Cl)c3)(C(F)(F)F)C2)c2ccccc12 (stereo not drawn) [Compound 16] | very good to excellent levels of control efficacy | very good to excellent levels of control efficacy | – | very good to excellent levels of control efficacy |
| COC(=O)[C@@H](NC(=O)c1ccc(C2=NOC(c3cc(Cl)cc(Cl)c3)(C(F)(F)F)C2)c2ccccc12)C(C)C (stereo partly drawn) [Compound 49] | very good to excellent levels of control efficacy | very good to excellent levels of control efficacy | – | very good to excellent levels of control efficacy |
| COCCNC(=O)c1ccc(C2=NOC(c3cc(Cl)cc(Cl)c3)(C(F)(F)F)C2)c2ccccc12 (stereo not drawn) [Compound 41] | very good to excellent levels of control efficacy | very good to excellent levels of control efficacy | – | very good to excellent levels of control efficacy |
| CN(C)CCNC(=O)c1ccc(C2=NOC(c3cc(Cl)cc(Cl)c3)(C(F)(F)F)C2)c2ccccc12.Cl (stereo not drawn) [Compound 14] | very good to excellent levels of control efficacy | very good to excellent levels of control efficacy | very good to excellent levels of control efficacy | – |
| FC(F)(F)C1(c2cc(Cl)cc(Cl)c2)CC(c2ccc(C(=S)NCc3ccccn3)c3ccccc23)=NO1 (stereo not drawn) [Compound 8] | very good to excellent levels of control efficacy | very good to excellent levels of control efficacy | – | very good to excellent levels of control efficacy |
| C#CCNC(=O)c1ccc(C2=NOC(c3cc(Cl)cc(Cl)c3)(C(F)(F)F)C2)c2ccccc12 (stereo not drawn) [Compound 19] | very good to excellent levels of control efficacy | very good to excellent levels of control efficacy | – | very good to excellent levels of control efficacy |
| O=C(NNc1ccccc1)c1ccc(C2=NOC(c3cc(Cl)cc(Cl)c3)(C(F)(F)F)C2)c2ccccc12 (stereo not drawn) [Compound 46] | very good to excellent levels of control efficacy | very good to excellent levels of control efficacy | very good to excellent levels of control efficacy | – |
| CCOC(=O)CNC(=O)c1ccc(C2=NOC(c3cc(Cl)cc(Cl)c3)(C(F)(F)F)C2)c2ccccc12 (stereo not drawn) [Compound 42] | very good to excellent levels of control efficacy | very good to excellent levels of control efficacy | – | very good to excellent levels of control efficacy |
| O=C(N[C@H]1CCc2ccccc21)c1ccc(C2=NOC(c3cc(Cl)cc(Cl)c3)(C(F)(F)F)C2)c2ccccc12 (stereo partly drawn) [Compound 39] | very good to excellent levels of control efficacy | very good to excellent levels of control efficacy | very good to excellent levels of control efficacy | – |
| O=C(CNC(=O)c1ccc(C2=NOC(c3cc(Cl)cc(Cl)c3)(C(F)(F)F)C2)c2ccccc12)NCC(F)(F)F (stereo not drawn) [Compound 51] | very good to excellent levels of control efficacy | very good to excellent levels of control efficacy | – | very good to excellent levels of control efficacy |
| O=C(NCc1ccccn1)c1ccc(C2=NOC(c3cc(Br)cc(Br)c3)(C(F)(F)F)C2)c2ccccc12 (stereo not drawn) [Compound 26] | very good to excellent levels of control efficacy | very good to excellent levels of control efficacy | – | very good to excellent levels of control efficacy |
| CCNC(=O)c1ccc(C2=NOC(c3cc(Cl)cc(Cl)c3)(C(F)(F)F)C2)c2ccccc12 (stereo not drawn) [Compound 10] | very good to excellent levels of control efficacy | very good to excellent levels of control efficacy | – | very good to excellent levels of control efficacy |
